14 compounds from ChEMBL document CHEMBL1687870, “Antimicrobial isopropenyl-dihydrofuranoisoflavones from Crotalaria lachnophora” (2011) can be followed below.

The source made the active and inactive calls. The rule behind the calls is not given here.

The test system of one assay is Candida albicans. Description: Antifungal activity against Candida albicans DSM 1386 after 24 hrs by disk diffusion method. The assay is classed as functional, organism-based.
The test system of another assay is Aspergillus niger. Description: Antifungal activity against Aspergillus niger DSM 1988 after 48 hrs by disk diffusion method. The class given is functional, organism-based. In general terms: In agar diffusion tests the substance spreads into inoculated agar from a disc or well.
Another assay has as its system Staphylococcus aureus. In words: Antimicrobial activity against Staphylococcus aureus DSM 799 at 1 ug/ul after 24 hrs by disk diffusion method. The assay is classed as functional.
Another assay relates to Pseudomonas aeruginosa. In words: Antimicrobial activity against Pseudomonas aeruginosa DSM 1128 at 1 ug/ul after 24 hrs by disk diffusion method. The assay is classed as functional.
Another assay deals with Klebsiella pneumoniae. Description: Antimicrobial activity against Klebsiella pneumoniae DSM 681 at 1 ug/ul after 24 hrs by disk diffusion method. The assay is classed as functional.
A further assay relates to Escherichia coli. In words: Antimicrobial activity against Escherichia coli DSM 682 after 24 hrs by disk diffusion method. The assay is classed as functional.

In the case of `COc1cc(O)c2c(c1)OC[C@H](c1ccc(O)cc1OC)C2=O` [CAJANOL], the outcome with Candida albicans, in the assay with Aspergillus niger, with Staphylococcus aureus and in the assay on Pseudomonas aeruginosa was inactive. The “diameter of the inhibition zone (DIZ)” value with Klebsiella pneumoniae is 9.3 mm; with Escherichia coli, 7.3 mm.

Turning to `C=C(C)C1Cc2c(O)cc3occ(-c4ccc(O)cc4O)c(=O)c3c2O1` (racemic), the result in the assay with Candida albicans, in the assay on Aspergillus niger, in the assay with Staphylococcus aureus and in the assay on Pseudomonas aeruginosa was inactive. Also, the “diameter of the inhibition zone (DIZ)” value is given as 7 mm with Klebsiella pneumoniae and 8.3 mm with Escherichia coli.

For `CN(C)[C@@H]1C(O)=C(C(N)=O)C(=O)[C@@]2(O)C(O)=C3C(=O)c4c(O)cccc4[C@@](C)(O)[C@H]3C[C@@H]12` [TETRACYCLINE], the “diameter of the inhibition zone (DIZ)” value in the assay on Staphylococcus aureus was 20.7 mm; in the assay with Pseudomonas aeruginosa, 17.7 mm; in the assay on Klebsiella pneumoniae it was 26.3 mm; in the assay with Escherichia coli, 22.3 mm.

As to `C=C(C)[C@H]1Cc2c(cc3occ(-c4ccc(O)cc4)c(=O)c3c2O)O1` [LICOAGROISOFLAVONE], the result in the assay on Candida albicans, with Aspergillus niger, in the assay with Staphylococcus aureus and in the assay on Pseudomonas aeruginosa was inactive. The “diameter of the inhibition zone (DIZ)” value with Klebsiella pneumoniae came out at 9.3 mm; in the assay on Escherichia coli it was 7.3 mm.

As for `C=C(C)C1Cc2c(cc3oc4oc5cc(O)ccc5c4c(=O)c3c2O)O1` (stereo unspecified) [LACHNOISOFLAVONE B], the outcome with Candida albicans, in the assay on Aspergillus niger, in the assay on Staphylococcus aureus and in the assay on Pseudomonas aeruginosa was inactive. The “diameter of the inhibition zone (DIZ)” value with Klebsiella pneumoniae turned out to be 7.3 mm; in the assay with Escherichia coli, 7 mm.

For the compound `COc1cc2occ(-c3ccc(O)cc3)c(=O)c2c(O)c1OC` [7-O-METHYLTECTORIGENIN], the result in the assay on Candida albicans, with Aspergillus niger, with Staphylococcus aureus and in the assay on Pseudomonas aeruginosa was inactive. In addition, the “diameter of the inhibition zone (DIZ)” value amounted to 7 mm in the assay on Klebsiella pneumoniae and 9.3 mm in the assay on Escherichia coli.

Take `O=c1c(-c2ccc(O)cc2O)coc2cc(O)cc(O)c12`: the outcome in the assay with Candida albicans, in the assay on Aspergillus niger, in the assay with Staphylococcus aureus and in the assay with Pseudomonas aeruginosa was inactive. Moreover, the “diameter of the inhibition zone (DIZ)” value in the assay with Klebsiella pneumoniae and in the assay with Escherichia coli was 7 mm in each case.

On to `CC1(C)S[C@@H]2[C@H](NC(=O)[C@H](N)c3ccccc3)C(=O)N2[C@H]1C(=O)O` [AMPICILLIN], for which the result in the assay on Staphylococcus aureus and in the assay with Pseudomonas aeruginosa was inactive. Besides, the figures for the “diameter of the inhibition zone (DIZ)” value in the assay on Klebsiella pneumoniae and with Escherichia coli were 11.7 mm and 24.3 mm, respectively.

On to `C[C@@H]1O[C@@H](Oc2cc(O)c3c(=O)cc(-c4ccc(O)c(O)c4)oc3c2)[C@H](O)[C@H](O)[C@H]1O`, for which the outcome in the assay on Candida albicans, with Aspergillus niger, with Staphylococcus aureus and in the assay on Pseudomonas aeruginosa was inactive. In addition, the “diameter of the inhibition zone (DIZ)” value worked out at 7.7 mm in the assay on Klebsiella pneumoniae and 10.7 mm in the assay with Escherichia coli.

Regarding `CN[C@@H]1[C@H](O[C@H]2[C@H](O[C@H]3[C@H](O)[C@@H](O)[C@H](N=C(N)N)[C@@H](O)[C@@H]3N=C(N)N)O[C@@H](C)[C@]2(O)C=O)O[C@@H](CO)[C@H](O)[C@H]1O` [STREPTOMYCIN], the outcome in the assay with Staphylococcus aureus and in the assay on Pseudomonas aeruginosa was inactive. Moreover, the “diameter of the inhibition zone (DIZ)” value is recorded as 21.3 mm in the assay with Klebsiella pneumoniae and 19.3 mm in the assay with Escherichia coli.

With GENTAMICIN, the inhibition zone (IZ) came out at 15.3 mm with Staphylococcus aureus, 20.3 mm in the assay with Pseudomonas aeruginosa, 14.3 mm in the assay on Klebsiella pneumoniae and 16.3 mm in the assay on Escherichia coli.

On to `COc1cc(O)c2c(=O)c(-c3ccc(O)cc3)coc2c1` [PRUNETIN], for which the outcome in the assay on Candida albicans, in the assay with Aspergillus niger, with Staphylococcus aureus and in the assay on Pseudomonas aeruginosa was inactive. Further, the “diameter of the inhibition zone (DIZ)” value with Klebsiella pneumoniae worked out at 9.3 mm; in the assay with Escherichia coli, 7.3 mm.

For the compound `COc1cc(O)c2c(=O)c(-c3ccc(O)cc3O)coc2c1` [CAJANIN], the outcome in the assay on Candida albicans, with Aspergillus niger, in the assay with Staphylococcus aureus and in the assay with Pseudomonas aeruginosa was inactive. For the same compound, the entries for the “diameter of the inhibition zone (DIZ)” value with Klebsiella pneumoniae and in the assay on Escherichia coli were 9.7 mm and 7.3 mm, respectively.

Take `COc1cc(-c2coc3cc(O)cc(O)c3c2=O)ccc1O` [3'-O-METHYLOROBOL]: the result with Candida albicans, in the assay with Aspergillus niger, in the assay on Staphylococcus aureus and in the assay on Pseudomonas aeruginosa was inactive. Moreover, the figures for the “diameter of the inhibition zone (DIZ)” value in the assay with Klebsiella pneumoniae and in the assay with Escherichia coli were 8.3 mm and 7 mm, respectively.
